Reference: US7749980B2, “Non-nucleotide compositions and method for treating pain” (Inspire Pharmaceuticals, Inc., priority 2003, dated 2010)

System: mice
Assay: acetic acid-induced abdominal constriction assay for visceral pain in mice
Format: in vivo
Settings: for number of averaged abdominal constrictions during the observation time interval compared to saline control: 50 mg/kg i.p. in physiological saline, 10 minutes prior to i.p. 0.9% acetic acid, 10 minutes of observation starting 5 minutes after acetic acid, statistical difference versus saline control group; for pharmacological effect over saline vehicle control in reducing the abdominal constrictions induced by 0.9% acetic acid: similar studies, dose dependence
Excerpt: The method employed is a modification of the abdominal constriction test described by Collier, et. al (Collier, et al., Br. J. Pharmacol. Chemother. 32: 295-310 (1968)). For the rest of the example, compound: 6-(phenylureido)purine-2′, 3′-(4-ethylcyclohexylspiroketyl)-5′-nicotinyl-ribofuranoside is named “Compound A” and {6-[6-(Cyclohexylmethyl-amino)-purin-9-yl]-2-isobutyl-tetrahydro-furo[3,4-d][1,3]dioxol-4-yl}-methanol is named “Compound B”.
Briefly, a group of eight mice is designated as the control group, and each of said mice in the group receives an intraperitoneal (i.p.) injection of physiological saline in a dose-volume: mouse-weight ratio of 5 mL/kg ten minutes prior to an i.p. injection of 0.9% acetic acid in physiological saline in a dose-volume: mouse-weight ratio of 10 mL/kg. Each of said mice in the control group is placed in its own observation chamber shortly after the acetic acid injection and is allowed to explore. Each testing period starts 5 minutes after the acetic acid injection into a mouse, and consists of 10 minutes of observation during which time the number of abdominal constrictions of the mouse are counted. Abdominal constriction is defined as a lengthwise stretching of the torso with concave arching of the back. An average number of total constrictions per mouse per observation time is calculated from mice in the control group, and this indicates a baseline level of pain response in the control group animals.
Compound A is administered i.p., at a dose of 50 mg/kg suspended in a volume of physiological saline (5 mL/kg), 10 minutes prior to the administration of acetic acid, as described for the control group above.
Compound B is administered i.p., at a dose of 50 mg/kg suspended in a volume of physiological saline (5 mL/kg), 10 minutes prior to the administration of acetic acid, as described for the control group above.

6-(phenylureido)purine-2′, 3′-(4-ethylcyclohexylspiroketyl)-5′-nicotinyl-ribofuranoside [Compound A]
number of averaged abdominal constrictions during the observation time interval compared to saline control: lower | pharmacological effect over saline vehicle control in reducing the abdominal constrictions induced by 0.9% acetic acid: dose dependent pharmacological effect

CC(C)CC1OC2C(CO)OC(n3cnc4c(NCC5CCCCC5)ncnc43)C2O1 (stereo not shown) [Compound B, {6-[6-(Cyclohexylmethyl-amino)-purin-9-yl]-2-isobutyl-tetrahydro-furo[3,4-d][1,3]dioxol-4-yl}-methanol]
number of averaged abdominal constrictions during the observation time interval compared to saline control: lower | pharmacological effect over saline vehicle control in reducing the abdominal constrictions induced by 0.9% acetic acid: dose dependent pharmacological effect
